In ChEMBL document CHEMBL1201862, “PubChem BioAssay data set” (2004):
The source made the active and inactive calls. Cut-off read from the data, not from the text of the source, for most assays here: actives have a measured EC50 and inactives only a lower limit.

Experiments:
Protein skinhead-1 = target: T1, Protein skinhead-1 (Caenorhabditis elegans, UniProt P34707); type: functional
T1 sequence (P34707 whole entry): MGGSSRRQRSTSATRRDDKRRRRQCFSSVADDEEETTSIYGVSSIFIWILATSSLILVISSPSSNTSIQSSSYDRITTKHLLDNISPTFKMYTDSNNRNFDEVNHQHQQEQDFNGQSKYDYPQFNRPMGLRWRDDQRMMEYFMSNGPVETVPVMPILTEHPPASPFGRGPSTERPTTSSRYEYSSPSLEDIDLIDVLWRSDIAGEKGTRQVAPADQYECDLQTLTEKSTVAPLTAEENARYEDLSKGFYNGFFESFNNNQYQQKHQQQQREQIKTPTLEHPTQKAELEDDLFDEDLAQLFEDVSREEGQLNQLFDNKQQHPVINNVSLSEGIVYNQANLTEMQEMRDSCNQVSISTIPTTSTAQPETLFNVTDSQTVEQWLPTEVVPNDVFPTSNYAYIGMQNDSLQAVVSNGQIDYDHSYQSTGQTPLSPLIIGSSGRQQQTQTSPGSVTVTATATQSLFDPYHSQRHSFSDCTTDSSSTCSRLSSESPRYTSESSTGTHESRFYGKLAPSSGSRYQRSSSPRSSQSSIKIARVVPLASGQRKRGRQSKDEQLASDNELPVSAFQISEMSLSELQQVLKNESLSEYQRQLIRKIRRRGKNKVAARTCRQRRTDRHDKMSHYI

[1] = target: T2, RNA-binding protein pos-1 (Caenorhabditis elegans, UniProt G5EF15); assay: disruptors of C. elegans POS-1 RNA interaction – biochemical, fluorescence polarization, dose response (AID 1964);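 note: purified POS-1 fused to maltose binding protein made in E. coli; potency of compounds blocking POS-1 binding to fluorescent RNA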
T2 sequence (G5EF15 whole entry): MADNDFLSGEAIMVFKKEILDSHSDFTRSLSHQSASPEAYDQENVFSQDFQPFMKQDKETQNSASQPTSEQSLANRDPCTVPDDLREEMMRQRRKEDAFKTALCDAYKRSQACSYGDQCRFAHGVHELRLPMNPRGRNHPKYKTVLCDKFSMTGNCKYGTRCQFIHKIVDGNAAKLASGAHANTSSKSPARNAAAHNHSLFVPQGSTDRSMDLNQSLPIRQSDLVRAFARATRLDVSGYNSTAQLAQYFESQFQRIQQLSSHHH

[2] = target: T3, Zinc finger protein mex-5 (Caenorhabditis elegans, UniProt Q9XUB2); assay: potency of MEX-5 RNA-binding blockers – biochemical, C. elegans, fluorescence polarization, dose response (AID 1960)
T3 sequence (Q9XUB2 whole entry): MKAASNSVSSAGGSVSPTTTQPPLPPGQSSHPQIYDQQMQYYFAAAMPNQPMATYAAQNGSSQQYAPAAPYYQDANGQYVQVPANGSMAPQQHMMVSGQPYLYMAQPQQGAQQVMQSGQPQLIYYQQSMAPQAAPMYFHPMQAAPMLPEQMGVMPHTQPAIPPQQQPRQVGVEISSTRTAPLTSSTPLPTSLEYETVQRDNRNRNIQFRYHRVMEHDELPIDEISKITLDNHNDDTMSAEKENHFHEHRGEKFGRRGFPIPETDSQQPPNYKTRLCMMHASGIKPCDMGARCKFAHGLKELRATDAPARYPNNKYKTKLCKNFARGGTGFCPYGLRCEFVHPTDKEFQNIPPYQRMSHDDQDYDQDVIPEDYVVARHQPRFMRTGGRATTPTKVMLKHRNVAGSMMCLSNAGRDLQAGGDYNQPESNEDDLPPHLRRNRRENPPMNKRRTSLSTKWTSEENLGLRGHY

BJ [3] = assay: BJ-TERT fibroblast viability loss – cell-based, RAS-independent, luminescence, dose response (AID 1933); type: functional; settings: Homo sapiens
[4] = DRD fibroblast viability loss – cell-based, non-viral oncogenic, luminescence, dose response (AID 1934); type: functional; settings: Homo sapiens
BJ [5] = assay: cells; type: functional, cell-based; settings: Homo sapiens
BJ [6] = assay: BJ-TERT-LT-ST fibroblast viability loss – cell-based, RAS-independent, luminescence, dose response (AID 1935); type: functional; settings: Homo sapiens;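 note: BJ fibroblasts immortalized with TERT plus LT and ST oncogenes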
[7] = luciferase reporter signal suppression in cells – H4 neuroglioma cells, luminescence, dose response (AID 1990); type: functional, cell-based
[8] = target: T4, Corticotropin-releasing factor receptor 2/Corticotropin-releasing factor-binding protein (Homo sapiens, UniProt P24387+Q13324); assay: Dose Response confirmation of uHTS hits for small molecule antagonists of the CRF-binding protein and CRF-R2 receptor complex.; type: functional; settings: read-out: IC50_Mean
T4 sequence (Q13324 whole entry): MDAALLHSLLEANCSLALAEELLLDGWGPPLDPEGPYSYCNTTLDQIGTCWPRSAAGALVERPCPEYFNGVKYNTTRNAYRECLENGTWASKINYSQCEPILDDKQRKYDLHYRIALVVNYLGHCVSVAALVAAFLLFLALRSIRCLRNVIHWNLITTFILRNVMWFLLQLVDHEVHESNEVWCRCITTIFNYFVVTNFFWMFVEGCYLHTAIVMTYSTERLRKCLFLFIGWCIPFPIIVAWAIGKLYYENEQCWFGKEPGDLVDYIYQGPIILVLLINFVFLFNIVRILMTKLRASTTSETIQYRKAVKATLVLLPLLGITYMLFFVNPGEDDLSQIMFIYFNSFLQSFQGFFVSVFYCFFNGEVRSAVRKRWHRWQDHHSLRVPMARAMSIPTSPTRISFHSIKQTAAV
T4 sequence (P24387 whole entry): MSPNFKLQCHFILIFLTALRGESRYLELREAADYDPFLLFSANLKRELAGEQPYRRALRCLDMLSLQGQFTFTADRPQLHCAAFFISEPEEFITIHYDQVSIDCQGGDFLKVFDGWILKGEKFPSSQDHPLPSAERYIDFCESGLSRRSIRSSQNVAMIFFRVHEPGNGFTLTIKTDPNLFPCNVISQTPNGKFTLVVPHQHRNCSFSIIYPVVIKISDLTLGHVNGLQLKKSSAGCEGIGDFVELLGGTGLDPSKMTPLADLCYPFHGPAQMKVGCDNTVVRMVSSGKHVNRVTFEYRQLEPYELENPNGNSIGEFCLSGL

[9] = Luminescence Cell-Based Dose Response HTS to Identify Inhibitors of 5'UTR Stem-Loop Driven Prion Protein mRNA Translation in H4 Neuroglioblastoma Cells. [Related pubchem assays: 1827 (Project Summary), 1813 (Primary HTS)]; type: functional
[10] = target: T4, Corticotropin-releasing factor receptor 2/Corticotropin-releasing factor-binding protein; assay: activators of CRF receptor 2 with binding protein – uHTS hits, confirmation (AID 602473); type: functional; settings: read-out: EC50_Mean
[11] = alpha-synuclein stem-loop luciferase translation blockers – H4 neuroglioma cells, luminescence, confirmation (AID 1988); type: functional, cell-based
[12] = Luminescence Cell-Based Dose Response HTS to Identify Activators of Luciferase Translation or Activity in H4 […] Cells. [Related pubchem assays: 1829 (Project Summary), 1814 (Primary HTS)]; type: functional
H4 = assay: Luminescence Cell-Based Dose Response HTS to Identify Activators of 5'UTR Stem-Loop Driven Prion Protein mRNA Translation in H4 Neuroglioblastoma Cells. [Related pubchem assays: 1829 (Project Summary), 1814 (Primary HTS)]; type: functional; settings: Homo sapiens

Row | SMILES | IC50 (Protein skinhead-1) | EC50 [1] | EC50 [2] | also measured
1 | COC(=O)c1ccc(C#Cc2ccccc2)o1 | > 100 µM (inactive) |  |  | 
2 | O=C(Nc1nc(-c2ccc(Cl)s2)cs1)c1ccco1 | 13.7 µM (active) |  |  | 
3 | O=C(CC1Sc2ccccc2NC1=O)NNc1cc(Cl)ccc1Cl (configuration not stated) | > 100 µM (inactive) |  |  | 
4 | Cc1cc(C(=O)N/N=C/c2ccc(-c3cccc(Cl)c3Cl)o2)[nH]n1 |  | 28.3 µM (active) | 10.2 µM (active) | 
5 | Fc1ccccc1OCCSc1nc2ccccc2o1 | 36.3 µM (active) |  |  | 
6 | COc1ccc(/C=C/c2cc(C(F)(F)F)nc(O)n2)cc1OC |  | > 300 µM (not active) | > 300 µM (not active) | 
7 | Cc1ccc(C(=O)c2cc([N+](=O)[O-])ccc2N2CCN(C)CC2)cc1 |  |  |  | EC50 (BJ [3]): 12.5 µM (active); EC50 [4]: 15.8 µM (inconclusive); EC50 (BJ [5]): 21.1 µM (inconclusive); EC50 (BJ [6]): 13.5 µM (inconclusive)
8 | CCOc1ccc(-c2nc(N)ncc2Oc2cccc(OC)c2)c(O)c1 | > 100 µM (inactive) |  |  | EC50 [7]: > 120 µM (not active); IC50 [8]: > 47.1 µM (inactive); EC50 [9]: 16.4 µM (active); EC50 [10]: > 53 µM (inactive); EC50 [11]: > 60 µM (not active)
9 | COc1cc(/C=C2/N=C(c3ccccc3)OC2=O)c(F)cc1OCc1ccccc1 |  | > 300 µM (not active) | > 300 µM (inconclusive) | 
10 | O=S(=O)(Cc1cc(Sc2ccccc2)nc(-c2ccccc2)n1)c1ccccc1 | > 100 µM (inactive) |  |  | 
11 | CCN1CCN(Cc2c(O)ccc3c2O/C(=C\c2ccccc2)C3=O)CC1 |  | 30.3 µM (active) | 57.9 µM (active) | 
12 | O=[N+]([O-])c1ccc(Nc2ccc(Cl)cc2)nc1 | > 100 µM (inactive) |  |  | 
13 | CN1CCN(C(=O)c2ccccc2N(Cc2ccccc2)S(C)(=O)=O)CC1 | > 100 µM (inactive) |  |  | 
14 | O=C1NC(=O)N(c2ccccc2F)C(=O)/C1=C/c1cn(CC(=O)N2CCOCC2)c2ccccc12 |  | > 300 µM (not active) | > 300 µM (not active) | 
15 | COC(=O)c1ccc(-n2c(C)cc(C(=O)COC(=O)CC3Sc4ccccc4NC3=O)c2C)cc1 (configuration not stated) |  | > 300 µM (not active) | > 300 µM (not active) | 
16 | Brc1ccc2oc(-c3cc[nH]n3)cc2c1 | 80 µM (inactive) |  |  | EC50 [12]: 281 nM (active); EC50 (H4): 93.8 µM (active)
17 | CCOc1ccc(Br)cc1S(=O)(=O)NC(=O)c1ccccc1 |  | > 300 µM (not active) | > 300 µM (not active) | 
18 | Cc1nc2nc(C)c(CCC(=O)N3CCN(c4ccccc4)CC3)c(C)n2n1 | > 100 µM (inactive) |  |  | 
19 | CC1(O)C(=O)C=C2C=C(C3CC3)OC=C2C1=O (configuration not stated) |  | 41.3 µM (active) | 17.8 µM (active) | 
